Active and inactive are the calls of the source. No cut-off for these calls is given here.
Experiments:
[1] = test system: Influenza A virus; experiment: Antiviral activity against Influenza A virus (A/Thailand/1(KAN-1)/2004(H5N1)) infected in BALB/c mouse assessed as virus-induced change body weight at 20 mg/kg, po BID for 5 days measured on day 15 postinfection; type: functional
[2] = test system: Influenza A virus; experiment: Antiviral activity against Influenza A virus (A/duck/Laos/25/2006(H5N1)) infected in BALB/c mouse assessed as virus-induced change body weight at 20 mg/kg, po BID for 5 days measured on day 6 postinfection; type: functional
[3] = test system: Influenza A virus; experiment: Antiviral activity against Influenza A virus (A/chicken/Yogjakarta/BBVet-IX/2004(H5N1)) infected in BALB/c mouse assessed as mean day to death at 20 mg/kg, po BID for 5 days measured post last dose; type: functional
[4] = test system: Influenza A virus; conditions: 120 h, route oral
[5] = test system: Influenza A virus; experiment: Antiviral activity against Influenza A virus (A/whooper swan/Mongolia/1/2009(H5N1)) infected in BALB/c mouse assessed as decrease in viral load in brain at 20 mg/kg, po BID for 5 days measured on day 3 postinfection; type: functional, organism-based; parameters: dose 20 mg/kg
[6] = test system: Influenza A virus; experiment: Antiviral activity against Influenza A virus (A/chicken/Yogjakarta/BBVet-IX/2004(H5N1)) infected in BALB/c mouse assessed as survival rate at 20 mg/kg, po BID for 5 days measured post last dose; type: functional; conditions: 120 h
[7] = test system: Influenza A virus; experiment: Antiviral activity against Influenza A virus (A/whooper swan/Mongolia/1/2009(H5N1)) infected in BALB/c mouse assessed as mean day to death at 20 mg/kg, po BID for 5 days measured post last dose; type: functional
[8] = test system: Influenza A virus; experiment: Antiviral activity against Influenza A virus (A/Thailand/1(KAN-1)/2004(H5N1)) infected in BALB/c mouse assessed as decrease in viral load in lung at 20 mg/kg, po BID for 5 days measured on day 6 postinfection; type: functional, organism-based; parameters: dose 20 mg/kg
[9] = test system: Influenza A virus; experiment: Antiviral activity against Influenza A virus (A/Thailand/1(KAN-1)/2004(H5N1)) infected in BALB/c mouse assessed as survival rate at 20 mg/kg, po BID for 5 days measured post last dose; type: functional; conditions: 120 h
[10] = test system: Influenza A virus; experiment: Antiviral activity against Influenza A virus (A/whooper swan/Mongolia/1/2009(H5N1)) infected in BALB/c mouse assessed as decrease in viral load in brain at 20 mg/kg, po BID for 5 days measured on day 6 postinfection; type: functional, organism-based; parameters: dose 20 mg/kg
[11] = test system: Influenza A virus; experiment: Antiviral activity against Influenza A virus (A/whooper swan/Mongolia/1/2009(H5N1)) infected in BALB/c mouse assessed as decrease in viral load in lung at 20 mg/kg, po BID for 5 days measured on day 9 postinfection; type: functional, organism-based; parameters: dose 20 mg/kg
[12] = test system: Influenza A virus; experiment: Antiviral activity against Influenza A virus (A/duck/Laos/25/2006(H5N1)) infected in BALB/c mouse assessed as decrease in viral load in lung at 20 mg/kg, po BID for 5 days measured on day 3 postinfection; type: functional, organism-based; parameters: dose 20 mg/kg
[13] = test system: Influenza A virus; experiment: Antiviral activity against Influenza A virus (A/duck/Laos/25/2006(H5N1)) infected in BALB/c mouse assessed as survival rate at 20 mg/kg, po BID for 5 days measured post last dose; type: functional; conditions: 120 h
[14] = test system: Influenza A virus; conditions: dose 20 mg/kg; route oral
[15] = test system: Influenza A virus; experiment: Antiviral activity against Influenza A virus (A/Thailand/1(KAN-1)/2004(H5N1)) infected in BALB/c mouse assessed as mean day to death at 20 mg/kg, po BID for 5 days measured post last dose; type: functional
[16] = test system: Influenza A virus; experiment: Antiviral activity against Influenza A virus (A/Thailand/1(KAN-1)/2004(H5N1)) infected in BALB/c mouse assessed as virus-induced change body weight at 20 mg/kg, po BID for 5 days measured on day 6 postinfection; type: functional
[17] = test system: Influenza A virus; experiment: Antiviral activity against Influenza A virus (A/duck/Laos/25/2006(H5N1)) infected in BALB/c mouse assessed as decrease in viral load in brain at 20 mg/kg, po BID for 5 days measured on day 9 postinfection; type: functional, organism-based; parameters: dose 20 mg/kg
[18] = test system: Influenza A virus; experiment: Antiviral activity against Influenza A virus (A/chicken/Yogjakarta/BBVet-IX/2004(H5N1)) infected in BALB/c mouse assessed as virus-induced change body weight at 20 mg/kg, po BID for 5 days measured on day 15 postinfection; type: functional
[19] = test system: Influenza A virus; experiment: Antiviral activity against Influenza A virus (A/Thailand/1(KAN-1)/2004(H5N1)) infected in BALB/c mouse assessed as virus-induced change body weight at 20 mg/kg, po BID for 5 days measured on day 9 postinfection; type: functional
[20] = test system: Influenza A virus; experiment: Antiviral activity against Influenza A virus (A/Thailand/1(KAN-1)/2004(H5N1)) infected in BALB/c mouse assessed as decrease in viral load in lung at 20 mg/kg, po BID for 5 days measured on day 9 postinfection; type: functional, organism-based; parameters: dose 20 mg/kg
[21] = test system: Influenza A virus; experiment: Antiviral activity against Influenza A virus (A/whooper swan/Mongolia/1/2009(H5N1)) infected in BALB/c mouse assessed as decrease in viral load in brain at 20 mg/kg, po BID for 5 days measured on day 9 postinfection; type: functional, organism-based; parameters: dose 20 mg/kg
[22] = test system: Influenza A virus; experiment: Antiviral activity against Influenza A virus (A/whooper swan/Mongolia/1/2009(H5N1)) infected in BALB/c mouse assessed as virus-induced change body weight at 20 mg/kg, po BID for 5 days measured on day 9 postinfection; type: functional
[23] = test system: Influenza A virus; experiment: Antiviral activity against Influenza A virus (A/duck/Laos/25/2006(H5N1)) infected in BALB/c mouse assessed as mean day to death at 20 mg/kg, po BID for 5 days measured post last dose; type: functional
[24] = test system: Influenza A virus; experiment: Antiviral activity against Influenza A virus (A/whooper swan/Mongolia/1/2009(H5N1)) infected in BALB/c mouse assessed as virus-induced change body weight at 20 mg/kg, po BID for 5 days measured on day 6 postinfection; type: functional
[25] = test system: Influenza A virus; conditions: dose 20 mg/kg; route oral; remark: listed apart in the source
[26] = test system: Influenza A virus; experiment: Antiviral activity against Influenza A virus (A/chicken/Yogjakarta/BBVet-IX/2004(H5N1)) infected in BALB/c mouse assessed as virus-induced change body weight at 20 mg/kg, po BID for 5 days measured on day 6 postinfection; type: functional
[27] = test system: Influenza A virus; experiment: Antiviral activity against Influenza A virus (A/Thailand/1(KAN-1)/2004(H5N1)) infected in BALB/c mouse assessed as decrease in viral load in brain at 20 mg/kg, po BID for 5 days measured on day 9 postinfection; type: functional, organism-based; parameters: dose 20 mg/kg
[28] = test system: Influenza A virus; experiment: Antiviral activity against Influenza A virus (A/duck/Laos/25/2006(H5N1)) infected in BALB/c mouse assessed as virus-induced change body weight at 20 mg/kg, po BID for 5 days measured on day 15 postinfection; type: functional
[29] = test system: Influenza A virus; experiment: Antiviral activity against Influenza A virus (A/chicken/Yogjakarta/BBVet-IX/2004(H5N1)) infected in BALB/c mouse assessed as decrease in viral load in lung at 20 mg/kg, po BID for 5 days measured on day 9 postinfection; type: functional, organism-based; parameters: dose 20 mg/kg
[30] = test system: Influenza A virus; experiment: Antiviral activity against Influenza A virus (A/chicken/Yogjakarta/BBVet-IX/2004(H5N1)) infected in BALB/c mouse assessed as decrease in viral load in brain at 20 mg/kg, po BID for 5 days measured on day 9 postinfection; type: functional, organism-based; parameters: dose 20 mg/kg
[31] = test system: Influenza A virus; experiment: Antiviral activity against Influenza A virus (A/duck/Laos/25/2006(H5N1)) infected in BALB/c mouse assessed as virus-induced change body weight at 20 mg/kg, po BID for 5 days measured on day 9 postinfection; type: functional
[32] = test system: Influenza A virus; experiment: Antiviral activity against Influenza A virus (A/whooper swan/Mongolia/1/2009(H5N1)) infected in BALB/c mouse assessed as virus-induced change body weight at 20 mg/kg, po BID for 5 days measured on day 15 postinfection; type: functional
[33] = test system: Influenza A virus; experiment: Antiviral activity against Influenza A virus (A/chicken/Yogjakarta/BBVet-IX/2004(H5N1)) infected in BALB/c mouse assessed as virus-induced change body weight at 20 mg/kg, po BID for 5 days measured on day 9 postinfection; type: functional
[34] = test system: Influenza A virus; experiment: Antiviral activity against Influenza A virus (A/whooper swan/Mongolia/1/2009(H5N1)) infected in BALB/c mouse assessed as survival rate at 20 mg/kg, po BID for 5 days measured post last dose; type: functional; conditions: 120 h

## CCOC(=O)C1=C[C@@H](OC(CC)CC)[C@H](NC(C)=O)[C@@H](N)C1 [OSELTAMIVIR]
[1]
  Activity: -2.1%
[2]
  Activity: -0.2%
[3]
  Time: >21 days
[4]
  survival at 20 mg/kg: 0%
[5]
  Activity: inactive
[6]
  survival at 20 mg/kg: 100%
[7]
  Time: 9.7 days
[8]
  Activity: Active
[9]
  survival at 20 mg/kg: 80%
[10]
  Activity: inactive
[11]
  Activity: Active
[12]
  inhibition: Active
[13]
  survival at 20 mg/kg: 60%
[14]
  Time: 8 days
[15]
  Time: 10 days
[16]
  Activity: -10.7%
[17]
  Activity: Active
[18]
  Activity: 1.2%
[19]
  Activity: -17.6%
[20]
  Activity: Active
[21]
  Activity: inactive
[22]
  Activity: -18.2%
[23]
  Time: 13.5 days
[24]
  Activity: -7%
[25]
  Activity: -24.4%
[26]
  Activity: -22%
[27]
  Activity: inactive
[28]
  Activity: -7.6%
[29]
  Activity: Active
[30]
  Activity: Active
[31]
  Activity: -20.3%
[32]
  Activity: -10.6%
[33]
  Activity: -11.2%
[34]
  survival at 20 mg/kg: 70%

From ChEMBL document CHEMBL1649470 (Antimicrob Agents Chemother, 2009)
